Experimental data: patent publication US10905703B2, “Preparation of a composition containing stilbene glycoside” (priority 2015, dated 2021)

Tests used:
male CF-1 mice = test: Animal study with pure trans- and cis-stilbene glycoside in high fat diet induced male CF-1 mice; assay type: in vivo; conditions: for serum glucose level / GTT: rise in blood glucose level / effect on glucose intolerance / serum insulin levels: 0.01% in drinking water; for serum glucose level: HFD for 12 weeks, FIG. 12; for GTT: rise in blood glucose level / effect on glucose intolerance / serum insulin levels: HFD 12 weeks; for GTT: rise in blood glucose level / effect on glucose intolerance: intraperitoneal glucose; for serum insulin levels: vs HF group
Source text: Male CF-1 mice were selected as the model for type 2 diabetes. The mice were kept on Western HFD for 12 weeks and were divided into five groups with 10 each. Group I: Normal control which had free access to drinking water and normal Chow; Group II: Diabetic control which had free access to drinking water and Western HFD; Group III: Treatment group which had free access to drinking water with 0.01% of pure trans-stilbene glycoside and HFD; Group IV: Treatment group which had free access to drinking water with 0.01% of pure cis-stilbene glycoside and Western HFD. Group V: […] Body weight, food and water uptake of the mice were taken on a regular basis. After 12 weeks, all the experimental mice were sacrificed. Body weight, blood glucose and blood insulin levels were evaluated as described before. Glucose tolerance test was also carried out at the end of the study.

[1] = system: phosphoenolpyruvate carboxykinase (PEPCK) mRNA expression; test: PEPCK assay (qPCR of Dex-cAMP induced PEPCK mRNA) in HepG2 cells; assay type: cell-based; conditions: for concentration dependence of PEPCK suppression: 30 μM vs 100 μM; for reduction of PEPCK mRNA compared to Dex/cAMP group: comparative Ct method; for suppression of Dex/cAMP-induced up-regulation of PEPCK transcription: normalized with β-actin, FIG. 13A
Experimental: The HepG2 cells were plated in 24-well tissue culture plates and were grown to near confluence in Dulbecco's modified Eagle's medium containing 2.5% (vol/vol) newborn calf serum and 2.5% (vol/vol) fetal calf serum. […]
Total RNA was extracted from HepG2 cells using Trizol reagent, following the manufacturer's instructions. RNA was quantified spectrophotometrically by absorbance measurements at 260 and 280 nm. Quality of RNA was assessed by separation in gel electrophoresis. RNA was then treated with Dnasel (Invitrogen), following the manufacturer's guidelines, to remove any traces of DNA contamination. The cDNAs were synthesized with […] of RNA for each sample, using Stratascript reverse transcriptase (Stratagene, La Jolla, Calif.), following the manufacturer's protocol. The synthesized cDNAs were diluted fourfold. Five microliters of each of these diluted samples was used for PCR reactions of 25 ηL final volume. The other components of the PCR reactions were 0.5 ηL of 6 ηM gene-specific primers and 12.5 ηL of Brilliant SYBR Green PCR master mix (containing green jump-start Taq ready mix). ROX (Stratagene, La Jolla, Calif.) was used as a reference dye. The primers were selected using the Primer Express version 2.0 software (Applied Biosystems, Foster City, Calif.). These primers generated a 76-bp product from β-actin mRNA. The intron-spanning forward primer was selected to cover the exon 9-10 boundary. The reverse primer was selected from exon 10. The oligos were synthesized by IDT. These primers generated a 74-bp product from PEPCK mRNA and a 207-bp product from genomic DNA.
Quantitative PCR (qPCR) amplifications were performed on an MX3000p system (Stratagene, La Jolla, Calif.) using one cycle at 50° C. for 2 min and one cycle of 95° C. for 10 min, followed by 40 cycles of 15 s at 95° C. and 1 min at 60° C. The dissociation curve was completed with one cycle of 1 min at 95° C., 30 s at 55° C., and 30 s at 95° C. Non-RT control and no-template control were included in each experiment as quality control steps.
PEPCK mRNA expressions were analyzed using the ΔΔCT method and normalized with respect to the expression of the β-actin house keeping gene. The ΔΔCT Values obtained from these methods reflect the relative mRNA quantities for a specific gene in response to a treatment as relative to a calibrator. The Dex-cAMP treatment (positive control) served as the calibrator sample in this study. The PECPK gene expression of the calibrator sample was assigned to a value of 1.0. A value of <1.0 indicates transcriptional down-regulation (inhibition of gene expression) relative to the calibrator. Amplification of specific transcripts was further confirmed by obtaining melting curve profiles. All samples were run in duplicate.

female KK CgAy/J mice = test: Anti-diabetic effect of stilbene glycoside in female KK CgAy/J mice incl. glucose and insulin tolerance tests; assay type: in vivo; conditions: for blood / serum glucose level vs diabetic control: stilbene glycoside 0.075% in drinking water, metformin 300 mg/kg; for insulin tolerance test: level of glucose: 30 minutes after insulin injection
Source text: Female KK CgAy/J mice were also utilized in this experiment and handled with the same protocol as in 1.2.3. The mice were divided into four groups with 10 each, and fed with Western HFD. […] Body weight, food and water uptake of the mice were taken on a regular basis. After 12 weeks, all the experimental mice were sacrificed. Similar measurements were taken to the previous experiment with PM extract. Before sacrifice, all the experimental mice were subjected to glucose and insulin tolerance tests. For glucose tolerance test, mice were fasted overnight and injected with glucose solution at 1 g/10 ml and 10 ml/kg body weight. The change in blood glucose level was monitored during the following two hours. For insulin tolerance test, mice were fasted for 5 hours and injected with insulin solution at 1 u/ml and 10 ml/kg body weight. The change in blood glucose level was monitored during the following two hours.

[2] = cited from earlier work
[3] = compared with resveratrol; cited from earlier work
[4] = rats, cited from earlier work
female KK mice = test: Animal study with trans- and cis-stilbene glycoside extracts in HFD-induced female KK mice; assay type: in vivo; conditions: 18 weeks HFD, solutions in drinking water
Experimental: Female KK mice were purchased from Jackson labs (Barr Harbor, Me.) and were housed in stainless steel wire-bottomed cages and acclimatized under laboratory conditions (19-23° C., humidity 60%, 12 h light/dark cycle). Normal control mice (n=10) were fed with control diet which was normal Chow 5001 from LabDiet (St. Louis, Mo.) and was composed of 28.5 kcal % protein, 58 kcal % carbohydrate and 13.5 kcal % fat. Diabetic control mice (n=10) were induced with HFD (Research Diets, New Brunswick, N.J.) composed of 20 kcal % protein, 20 kcal % carbohydrate, and 60 kcal % fat (from butter) for 18 weeks. Three solutions were administered to mice (n=10 each) on HFD ad libitum and the compositions are shown below. Solution 1: pure trans-stilbene glycoside (0.05% in drinking water), HPLC chromatogram in FIG. 3.2 (A); Solution 2: 60% ethanol extract of PM root powders, obtained according to procedure in Section 1.2.1 (proportion of cis-stilbene glycoside to trans-stilbene glycoside is approximately 1:20, 0.075% in drinking water), HPLC chromatogram in FIG. 3.2 (B); Solutions 3: obtained from exposing solution 2 under UV-light overnight (proportion of cis-stilbene glycoside to trans-stilbene glycoside is approximately 2:3, 0.075% in drinking water), HPLC chromatogram in FIG. 3.2 (C). After 18 weeks, body weight and blood glucose of all mice were measured.

Cn1c(=O)c2c(ncn2C)n(C)c1=O [caffeine, reference compound]
serum glucose level (male CF-1 mice): significantly decrease

OC[C@H]1O[C@@H](Oc2c(O)cc(O)cc2/C=C/c2ccc(O)cc2)[C@H](O)[C@@H](O)[C@@H]1O [cis-stilbene glycoside, 2,3,5,4-tetrahydroxystilbene 2-O-β-glucopyranoside]
GTT: rise in blood glucose level / effect on glucose intolerance (male CF-1 mice): greatly suppressed
serum insulin levels (male CF-1 mice): significantly lowered
serum glucose level (male CF-1 mice): significantly decrease
Calculated HOMA-IR lower than that in trans-stilbene glycoside group (male CF-1 mice; cis group relative to trans group): 102.7%
concentration dependence of PEPCK suppression [1]: suppressed more efficiently at 30 μM than at 100 μM
reduction of PEPCK mRNA compared to Dex/cAMP group ([1]; 30 μM): 61.7%
suppression of Dex/cAMP-induced up-regulation of PEPCK transcription [1]: effectively suppress

CN(C)C(=N)N=C(N)N [metformin, reference compound]
blood / serum glucose level vs diabetic control (female KK CgAy/J mice; 12 weeks HFD, FIG. 6): effectively brought down
insulin tolerance test: level of glucose (female KK CgAy/J mice; FIG. 7B): higher level of glucose
insulin tolerance test: blood glucose (female KK CgAy/J mice; two hours after insulin injection, FIG. 7B): dropped to a lower level than that of stilbene glycoside group

OC[C@H]1O[C@@H](Oc2c(O)cc(O)cc2/C=C/c2ccc(O)cc2)[C@H](O)[C@@H](O)[C@@H]1O [stilbene glycoside, 2,3,5,4-tetrahydroxystilbene 2-O-β-glucopyranoside]
solubility [2]: soluble in water, methanol and ethanol
serum insulin level vs diabetic control (female KK CgAy/J mice; 12 weeks HFD, 0.075% in drinking water, FIG. 6): elevated
blood / serum glucose level vs diabetic control (female KK CgAy/J mice; 12 weeks HFD, FIG. 6): elevated
glucose tolerance test: blood glucose level (female KK CgAy/J mice; 30 minutes after glucose injection (1 g/kg), FIG. 7A): the most elevated
insulin tolerance test: level of glucose (female KK CgAy/J mice; FIG. 7B): higher level of glucose
glucose tolerance test: blood glucose (female KK CgAy/J mice; at the end of the test (two hours), FIG. 7A): remained much higher than normal control and metformin groups
glucose tolerance (female KK CgAy/J mice; overall finding of glucose tolerance test): glucose intolerant
antioxidant activity [3]: higher antioxidant activity than resveratrol
time of distribution ([4]; single intravenous or oral administration): ≤ 30 min
Total recovery of unchanged stilbene glycoside in bile ([4]; within 24 hr): 0.041%
Total recovery of unchanged stilbene glycoside in feces ([4]; within 24 hr): 0.06%
amount of unchanged stilbene glycoside excreted in the urine ([4]; within 24 hr): lower than Lower Limit of Quantification (LLOQ)
Absolute bioavailability [4]: 40%
form of excretion ([4]; metabolites including monoglucuronide and the deglycosidated form): excreted mainly in the forms of metabolites

OC[C@H]1O[C@@H](Oc2c(O)cc(O)cc2/C=C/c2ccc(O)cc2)[C@H](O)[C@@H](O)[C@@H]1O [trans-stilbene glycoside, 2,3,5,4-tetrahydroxystilbene 2-O-β-glucopyranoside]
GTT: rise in blood glucose level / effect on glucose intolerance (male CF-1 mice): absent
serum insulin levels (male CF-1 mice): significantly lowered
serum glucose level (male CF-1 mice): significantly decrease
high fat induced body weight gain compared to diabetic control (female KK mice): none of the three solutions significantly decreased
concentration dependence of PEPCK suppression [1]: higher concentration resulted in lower level of PEPCK transcription
reduction of PEPCK mRNA compared to Dex/cAMP group ([1]; 100 μM): 53.3%
suppression of Dex/cAMP-induced up-regulation of PEPCK transcription [1]: effectively suppress
